Active and inactive are the calls of the source.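 How the source made its calls: active means survival above the stress-only control level plus 20 points, here above 50%; inactive means the rest.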
Each compound was assayed on CSM14.1 tunicamycin-induced death, Annexin V/PI flow, 72 h (assay: rescue of CSM14.1 cells from tunicamycin, SAR follow-up, orthogonal assay for ER stress death inhibitor project, undifferentiated CSM14.1, flow cytometry (AID 1349)). Conditions: at 25 µM; active compounds read high.

| SMILES | survival |
| --- | --- |
| COc1ccc(C2CC(=O)C3=C(C2)Nc2ccccc2NC3c2cc(C)ccc2C)cc1 (stereo unspecified) | 70% |
| CC1(C)CC(=O)C2=C(C1)Nc1ccccc1NC2c1ccc(-c2ccccc2)cc1 (stereo unspecified) | 92% |
| O=C1CC(c2ccccc2)CC2=C1C(c1c(F)cccc1Cl)Nc1ccccc1N2 (stereo unspecified) | 58% |
| CSc1ccc(C2Nc3ccccc3NC3=C2C(=O)CC(c2ccccc2)C3)cc1 (stereo unspecified) | 62% |
| CCCOc1ccc(C2Nc3ccccc3NC3=C2C(=O)CC(c2ccc(OC)c(OC)c2)C3)cc1 (stereo unspecified) | 74% |
| CCOc1cccc(C2Nc3ccccc3NC3=C2C(=O)CC(c2ccc(OC)cc2)C3)c1 (stereo unspecified) | 49% (inactive) |
| COc1ccc(C2CC(=O)C3=C(C2)Nc2ccccc2NC3c2cccc(Oc3ccccc3)c2)cc1OC (stereo unspecified) | 54% |
| COc1ccc(C2CC(=O)C3=C(C2)Nc2ccccc2NC3c2cccc(C(F)(F)F)c2)cc1OC (stereo unspecified) | 82% |
| COc1ccc(C2CC(=O)C3=C(C2)Nc2ccccc2NC3c2ccccc2C(F)(F)F)cc1OC (stereo unspecified) | 65% |
| COc1ccc(C2CC(=O)C3=C(C2)Nc2ccccc2NC3c2cccc(Br)c2)cc1OC (stereo unspecified) | 67% |
| CCOc1cc(C2Nc3ccccc3NC3=C2C(=O)CC(c2ccc(OC)cc2)C3)cc(Cl)c1O (stereo unspecified) | 52% |

From PubChem BioAssay AID1349 (Sanford-Burnham Center for Chemical Genomics, 2008)
